# Assay results as given in ChEMBL document CHEMBL1201862, “PubChem BioAssay data set” (2004).
#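 Following 48 hours of exposure in 96-well plates, responses at five concentrations were used to interpolate endpoints linearly. GI50: concentration for 50% inhibition of growth.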 Calls of active or inactive are those of the source. No stated cut-off is given here; in the data, active = GI50 up to about 1.1 µM and inactive = higher.
# What was measured:
# Experiment in all cases: inhibition of tumour cell growth, NCI panel, 48 h
# NCI-H226 = system: NCI-H226
# UO-31 = system: UO-31
# HOP-92 = system: HOP-92
# UACC-62 = system: UACC-62
# M14 = system: M14
# UACC-257 = system: UACC-257
# U-251 = system: U-251
# SNB-19 = system: SNB-19
# CAKI-1 = system: CAKI-1
# SF-295 = system: SF-295
# RPMI-8226 = system: RPMI-8226
# HCT-15 = system: HCT-15
# SNB-75 = system: SNB-75
# SK-MEL-28 = system: SK-MEL-28
# LOX IMVI = system: LOX IMVI
# CCRF-CEM = system: CCRF-CEM
# COLO 205 = system: COLO 205
# SK-OV-3 = system: SK-OV-3
# SK-MEL-5 = system: SK-MEL-5
# HL-60 = system: HL-60
SMILES,GI50 (NCI-H226),GI50 (UO-31),GI50 (HOP-92),GI50 (UACC-62),GI50 (M14),GI50 (UACC-257),GI50 (U-251),GI50 (SNB-19),GI50 (CAKI-1),GI50 (SF-295),GI50 (RPMI-8226),GI50 (HCT-15),GI50 (SNB-75),GI50 (SK-MEL-28),GI50 (LOX IMVI),GI50 (CCRF-CEM),GI50 (COLO 205),GI50 (SK-OV-3),GI50 (SK-MEL-5),GI50 (HL-60)
CCCC(=O)OCOC(=O)N(C)/N=N/c1ccc(C(=O)OCC)cc1,92.7 µM (inactive),22 µM (inactive),19.4 µM (inactive),15.4 µM (inactive),24.3 µM (inactive),33.7 µM (inactive),25.2 µM (inactive),68.9 µM (inactive),43.8 µM (inactive),15.8 µM (inactive),49.1 µM (inactive),19.9 µM,26.5 µM (inactive),57.7 µM (inactive),10.7 µM (inactive),37.6 µM (inactive),18.7 µM (inactive),41.5 µM (inactive),29.6 µM (inactive),–
COc1cc2c(cc1O)NC(=S)[C@@H]1CCCN1C2=O,> 100 µM (inactive),> 100 µM (inactive),> 100 µM (inactive),> 100 µM (inactive),> 100 µM (inactive),> 100 µM (inactive),> 100 µM (inactive),> 100 µM (inactive),> 100 µM (inactive),97.1 µM (inactive),> 100 µM (inactive),> 100 µM,> 100 µM (inactive),> 100 µM (inactive),> 100 µM (inactive),76.6 µM (inactive),> 100 µM (inactive),> 100 µM (inactive),> 100 µM (inactive),–
CC[C@H](C)[C@H](NC(=O)[C@H](Cc1ccc(O)cc1)NCC(F)(F)F)C(=O)OC(C)(C)C,9.06 µM (inactive),7.64 µM (inactive),8.99 µM (inactive),5.69 µM (inactive),7.03 µM (inactive),6.82 µM (inactive),6.85 µM (inactive),7.96 µM (inactive),7.01 µM (inactive),6.9 µM (inactive),6.64 µM (inactive),10.5 µM,7.89 µM (inactive),9.38 µM (inactive),8.67 µM (inactive),–,8.05 µM (inactive),8.11 µM (inactive),7.41 µM (inactive),–
CCOC(=O)c1c(N2CCOCC2)[nH]c(=O)c(C(c2ccc(N(C)C)cc2)c2c(O)c(C(=O)OCC)c(N3CCOCC3)[nH]c2=O)c1O,> 100 µM (inactive),> 100 µM (inactive),> 100 µM (inactive),> 100 µM (inactive),> 100 µM (inactive),> 100 µM (inactive),> 100 µM (inactive),> 100 µM (inactive),> 100 µM (inactive),> 100 µM (inactive),46.6 µM (inactive),> 100 µM,> 100 µM (inactive),> 100 µM (inactive),59 µM (inactive),54.2 µM (inactive),> 100 µM (inactive),> 100 µM (inactive),> 100 µM (inactive),–
CCCN(CCCc1ccccc1)CCc1ccc2[nH]c(=S)[nH]c2c1,66.5 µM (inactive),6.75 µM (inactive),8.87 µM (inactive),31 µM (inactive),16.7 µM (inactive),25.6 µM (inactive),33.4 µM (inactive),26.1 µM (inactive),28.9 µM (inactive),12.4 µM (inactive),12.4 µM (inactive),25.8 µM,21.1 µM (inactive),20.1 µM (inactive),31.3 µM (inactive),–,16.8 µM (inactive),53.8 µM (inactive),–,–
CC(C)=CCNc1ncnc2c1ncn2CCC(=O)OC(C)(C)C,> 100 µM (inactive),22.7 µM (inactive),49.7 µM (inactive),38.3 µM (inactive),> 100 µM (inactive),–,63.8 µM (inactive),> 100 µM (inactive),–,> 100 µM (inactive),72.3 µM (inactive),> 100 µM,13 µM (inactive),> 100 µM (inactive),> 100 µM (inactive),22 µM (inactive),> 100 µM (inactive),26.2 µM (inactive),21.4 µM (inactive),> 100 µM (inactive)
COc1ccc([C@@H]2CC(=O)N2)cc1,> 100 µM (inactive),> 100 µM (inactive),> 100 µM (inactive),> 100 µM (inactive),> 100 µM (inactive),> 100 µM (inactive),> 100 µM (inactive),> 100 µM (inactive),> 100 µM (inactive),> 100 µM (inactive),> 100 µM (inactive),> 100 µM,> 100 µM (inactive),> 100 µM (inactive),–,> 100 µM (inactive),> 100 µM (inactive),> 100 µM (inactive),> 100 µM (inactive),> 100 µM (inactive)
CC1OC(=O)N(CCCC=C2SCCCS2)C1=O (centres undefined),> 100 µM (inactive),> 100 µM (inactive),> 100 µM (inactive),> 100 µM (inactive),> 100 µM (inactive),> 100 µM (inactive),> 100 µM (inactive),> 100 µM (inactive),–,> 100 µM (inactive),> 100 µM (inactive),> 100 µM,> 100 µM (inactive),> 100 µM (inactive),> 100 µM (inactive),> 100 µM (inactive),> 100 µM (inactive),> 100 µM (inactive),–,–
Cc1ccc2nc(-c3ccc(N)c(I)c3)sc2c1,16 µM (inactive),7.06 µM (inactive),20.1 µM (inactive),32.5 µM (inactive),37.1 µM (inactive),23.7 µM (inactive),26.1 µM (inactive),19 µM (inactive),> 100 µM (inactive),19.1 µM (inactive),–,6.11 µM,41.5 µM (inactive),> 100 µM (inactive),–,6.21 µM (inactive),17.1 µM (inactive),38.2 µM (inactive),29.4 µM (inactive),12.9 µM (inactive)
CC(=O)C1=CSC2[C@H](NC(=O)Cc3ccccc3)C(=O)N2C1C(=O)OC(c1ccccc1)c1ccccc1 (some centres undefined),> 100 µM (inactive),> 100 µM (inactive),46.5 µM (inactive),30.1 µM (inactive),> 100 µM (inactive),> 100 µM (inactive),–,> 100 µM (inactive),59 µM (inactive),40.7 µM (inactive),39.5 µM (inactive),–,56.2 µM (inactive),> 100 µM (inactive),–,23.1 µM (inactive),> 100 µM (inactive),> 100 µM (inactive),65.6 µM (inactive),35.2 µM (inactive)
O=C1CCC2(O)C3Cc4ccc(Oc5nnnn5-c5ccccc5)c5c4C2(CCN3CC2CC2)C1O5 (centres undefined),–,24.2 µM (inactive),50.2 µM (inactive),28.7 µM (inactive),18 µM (inactive),28.2 µM (inactive),33.4 µM (inactive),95.7 µM (inactive),> 100 µM (inactive),70 µM (inactive),28.9 µM (inactive),35.5 µM,> 100 µM (inactive),14.9 µM (inactive),27 µM (inactive),18.6 µM (inactive),17.5 µM (inactive),> 100 µM (inactive),12.8 µM (inactive),–
CCN(CC)CCNC(=O)c1cccc2nc3ccccc3nc12,8.15 µM (inactive),> 24.8 µM (inactive),38.4 µM (inactive),18.9 µM (inactive),18.5 µM (inactive),7.26 µM (inactive),16.9 µM (inactive),21.2 µM (inactive),> 39.3 µM (inactive),11 µM (inactive),7.64 µM (inactive),6.53 µM,> 36.8 µM (inactive),17.5 µM (inactive),4.4 µM (inactive),–,3.78 µM (inactive),> 49 µM (inactive),> 46 µM (inactive),–
COc1c(-c2nc3ccc(N4CCN(C)CC4)nc3[nH]2)cc(OC)c2[nH]c(CO)nc12,36.1 µM (inactive),> 100 µM (inactive),> 100 µM (inactive),82.2 µM (inactive),> 100 µM (inactive),> 100 µM (inactive),29.6 µM (inactive),42.6 µM (inactive),> 100 µM (inactive),> 100 µM (inactive),–,> 100 µM,95.5 µM (inactive),> 100 µM (inactive),85.5 µM (inactive),–,> 100 µM (inactive),> 100 µM (inactive),> 100 µM (inactive),–
COc1cc(C(=O)O)cc2c1[nH]c1ccccc12 [MUKOEIC ACID],> 25 µM (inactive),> 25 µM (inactive),> 25 µM (inactive),> 25 µM (inactive),> 25 µM (inactive),–,> 25 µM (inactive),> 25 µM (inactive),–,–,> 25 µM (inactive),> 25 µM,–,> 25 µM (inactive),> 25 µM (inactive),> 25 µM (inactive),> 25 µM (inactive),> 25 µM (inactive),> 25 µM (inactive),> 25 µM (inactive)
CC(C)C1=C(Cc2ccccc2)C(=O)O/C1=C\c1ccc(O)c(Cl)c1,16.6 µM (inactive),14.4 µM (inactive),–,14.8 µM (inactive),17.5 µM (inactive),18.8 µM (inactive),16.7 µM (inactive),11.5 µM (inactive),18.6 µM (inactive),16 µM (inactive),12.4 µM (inactive),16 µM,16.9 µM (inactive),16.9 µM (inactive),18.4 µM (inactive),15.5 µM (inactive),20.4 µM (inactive),19.5 µM (inactive),16.7 µM (inactive),15.7 µM (inactive)
C=CCCc1cc(OC)ccc1CN(C)C(C)(C)CO,–,–,> 100 µM (inactive),> 100 µM (inactive),–,> 100 µM (inactive),> 100 µM (inactive),> 100 µM (inactive),> 100 µM (inactive),> 100 µM (inactive),> 100 µM (inactive),> 100 µM,85.7 µM (inactive),> 100 µM (inactive),> 100 µM (inactive),> 100 µM (inactive),> 100 µM (inactive),–,> 100 µM (inactive),–
